According to the supplement of paper PMC10307832:

What was measured:
Assay in all cases: relative viability (nuclei count vs DMSO), 5 days (fraction); higher = more cells survive
Bexarotene + AZD7762 = compound: C=C(c1ccc(C(=O)O)cc1)c1cc2c(cc1C)C(C)(C)CCC2(C)C [Bexarotene] + NC(=O)Nc1cc(-c2cccc(F)c2)sc1C(=O)N[C@H]1CCCNC1 [AZD7762] (partner 0.2 µM)
Summary of the method: (§1)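 Lung cancer cell lines were pin-tool dosed in 1536-well plates on the day after seeding, with either a lone drug or a fixed anchor-drug dose plus five library-drug doses (not always all listed) in √10 steps. Nuclei were counted on 4× images after 5 days. Relative viability is the ratio of treated-well to vehicle-well nuclei counts, with each value a median of duplicate plates.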

Bexarotene + Tozasertib = compound: C=C(c1ccc(C(=O)O)cc1)c1cc2c(cc1C)C(C)(C)CCC2(C)C [Bexarotene] + Cc1cc(Nc2cc(N3CCN(C)CC3)nc(Sc3ccc(NC(=O)C4CC4)cc3)n2)n[nH]1 [Tozasertib] (partner 0.1 µM)
Summary of the method: as §1

Bexarotene + Trametinib = compound: C=C(c1ccc(C(=O)O)cc1)c1cc2c(cc1C)C(C)(C)CCC2(C)C [Bexarotene] + CC(=O)Nc1cccc(-n2c(=O)n(C3CC3)c(=O)c3c(Nc4ccc(I)cc4F)n(C)c(=O)c(C)c32)c1 [Trametinib] (partner 0.02 µM)
Summary of the method: as §1

Bexarotene = compound: C=C(c1ccc(C(=O)O)cc1)c1cc2c(cc1C)C(C)(C)CCC2(C)C [Bexarotene]
Summary of the method: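 Cells of lung cancer lines were placed in 1536-well plates and kept overnight at 37 °C. Pinning then delivered five library-drug doses (not always all listed), spaced by √10, onto plates anchored with vehicle, and the cells were left 5 days without changing medium. One step fixed, permeabilised and stained them with Hoechst, and MetaXpress counted nuclei in 4× images. Viability, as a median over plates, is treated-well nuclei divided by vehicle-well nuclei, with acceptance only at control CV below 25% and at least one doubling.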

Cell Line	relative viability (Bexarotene + AZD7762; first compound 0.08 µM)	relative viability (Bexarotene + AZD7762; first compound 0.253 µM)	relative viability (Bexarotene + AZD7762; first compound 0.8 µM)	relative viability (Bexarotene + AZD7762; first compound 2.53 µM)	relative viability (Bexarotene + AZD7762; first compound 8 µM)	relative viability (Bexarotene + Tozasertib; first compound 0.08 µM)	relative viability (Bexarotene + Tozasertib; first compound 0.253 µM)	relative viability (Bexarotene + Tozasertib; first compound 0.8 µM)	relative viability (Bexarotene + Tozasertib; first compound 2.53 µM)	relative viability (Bexarotene + Tozasertib; first compound 8 µM)	relative viability (Bexarotene + Trametinib; first compound 0.08 µM)	relative viability (Bexarotene + Trametinib; first compound 0.253 µM)	relative viability (Bexarotene + Trametinib; first compound 0.8 µM)	relative viability (Bexarotene + Trametinib; first compound 2.53 µM)	relative viability (Bexarotene + Trametinib; first compound 8 µM)	relative viability (Bexarotene; 0.08 µM)	relative viability (Bexarotene; 0.253 µM)	relative viability (Bexarotene; 0.8 µM)	relative viability (Bexarotene; 2.53 µM)	relative viability (Bexarotene; 8 µM)
NCI-H1755	0.536	0.6	0.439	0.569	0.54	0.624	0.607	0.637	0.638	0.622	0.849	0.864	0.834	0.773	0.718	1.07	1.15	1.06	0.998	0.982
NCI-H2087	1.33	1.3	1.2	1.35	1.16	0.254	0.314	0.211	0.179	0.258	0.21	0.166	0.175	0.148	0.171	1.08	1.12	1.02	1.03	0.892
NCI-H2228						0.241	0.262	0.226	0.205	0.229	0.54	0.641	0.389	0.457	0.417	1.02	1.24	1.03	0.819	0.947
NCI-H727	0.537	0.635	0.598	0.617	0.633	0.622	0.584	0.76	0.64	0.618	0.377	0.362	0.293	0.382	0.292	0.961	0.978	0.916	1.05	1.04
NCI-H650	1.13	0.986	1.17	0.709	1.05	0.747	0.724	0.721	0.789	0.687	1.17	0.957	1.02	0.972	0.957	1.19	1.03	0.986	0.822	0.919
NCI-H520						0.409	0.454	0.411	0.417	0.382	0.668	0.63	0.742	0.662	0.643	1.06	0.869	0.865	0.852	0.972
EBC-1																0.901	1.03	0.971	1.02	1.08
NCI-H661						0.387	0.357	0.348	0.355	0.341	0.58	0.523	0.544	0.543	0.495	1.04	0.998	0.934	0.922	0.91
NCI-H1299																1.01	1.12	1.06	1.01	1.02
SK-LU-1						0.284	0.346		0.358	0.321	0.548	0.587		0.579	0.517	1.2	1.13		1.04	0.936
COR-L23						0.242	0.238	0.238	0.204	0.219	0.747	0.72	0.501	0.553	0.547	1.16	0.979	0.936	0.874	0.951
NCI-H1650						0.483	0.541	0.55	0.397	0.419	0.56	0.474	0.614	0.466	0.477	1.01	0.897	0.912	0.785	0.844
IA-LM																0.876	0.906	0.806	0.774	0.831
NCI-H2009						0.753	0.897	0.814	0.815	0.778	0.336	0.331	0.28	0.391	0.413	1.21	1.22	1.11	1.08	1.07
NCI-H1563																1.03	0.911	0.868	0.938	0.987
SK-MES-1						0.907	0.95	0.784	0.832	0.573	0.701	0.747	0.656	0.672	0.65	1.16	1.12	1	0.98	0.909
UMC-11						0.224	0.202	0.202	0.21	0.221	0.638	0.668	0.623	0.634	0.658	0.976	0.952	0.917	0.917	0.963
ABC-1	0.729	0.797	0.747	0.667	0.876	0.19	0.175	0.21	0.197	0.196						1	0.904	0.892	0.851	0.993
SW 1573						0.219	0.171	0.251	0.162	0.224	0.546	0.507	0.538	0.502	0.456	1.04	0.976	0.921	0.84	0.771
NCI-H1792	0.64	0.572	0.526	0.593	0.526						0.677	0.46	0.442	0.493	0.345	0.904	0.886	0.672	0.632	0.769
NCI-H2023						0.395	0.385	0.417	0.328	0.283	0.719	0.676	0.551	0.497	0.355	1.05	0.958	1.01	0.921	0.771
COR-L 105						0.395	0.328	0.324	0.442	0.388	0.48	0.426	0.478	0.451	0.465	1.13	1.02	0.963	0.987	0.892
